Measurements taken from patent US10731159B2, “Cationic lipid” (DAIICHI SANKYO COMPANY, LIMITED, priority 2013, dated 2020).

Assays:
[1] = Ratio of polynucleotide/mRNA to lipid (wt/wt); assay type: physicochemical
Method: The nucleic acid lipid particle dispersion was mixed with acetonitrile and chloroform at a ratio of 1:1:1 and centrifuged at 15,000 rpm for 2 minutes. Then, the aqueous layer obtained as an upper layer was recovered, followed by the extraction of the double-stranded polynucleotide. The amount of the double-stranded polynucleotide in the sample was measured by ion-exchange chromatography (system: Agilent 1100 series, column: TSKgel DEAE-2SW (2.6×150 mm) (Tosoh Corp), buffer A: 20% acetonitrile, buffer B: 20% acetonitrile and 1.6 M ammonium formate, gradient (B %): 30-55% (0-20 min), flow rate: 1 mL/min, temperature: 40° C., detection: 260 nm).
The amount of the phospholipid in the nucleic acid lipid particle dispersion was measured using Phospholipid C-Test Wako (Wako Pure Chemical Industries Ltd.) according to the attached document. Specifically, the phospholipid in the sample was quantified in the presence of a 1% Triton X-100 detergent.
(§1) The amounts of cholesterol and LP in the nucleic acid lipid particle dispersion were measured by reverse-phase chromatography (system: Agilent 1100 series, column: Chromolith Performance RP-18 endcapped 100-3 monolithic HPLC-column (Merck), buffer A: 0.01% trifluoroacetic acid, buffer B: 0.01% trifluoroacetic acid and methanol, gradient (B %): 87-92% (0-10 min), flow rate: 2 mL/min, temperature: 50° C., detection: 205 nm).
(§2) The total amount of lipids was calculated from the amount of the phospholipid and the compositional ratio of lipid components constituting the liposome, and the ratio of the polynucleotide to the lipid was calculated from the aforementioned amount of the polynucleotide and the total amount of lipids according to the following expression: [Double-stranded polynucleotide concentration]/[Total lipid concentration] (wt/wt)
as §2, with “phospholipid, the amount of cholesterol, and the amount of LP,” for “phospholipid”
The amount of the double-stranded polynucleotide in a sample from the nucleic acid lipid particle dispersion was measured in the presence of a 5% Triton X-100 detergent by ion-exchange chromatography (system: Agilent 1100 series, column: DNAPac PA200 (4×250 mm) (Thermo Fisher Scientific K.K.), buffer A: 10 mM Tris, 25 mM sodium perchlorate, and 20% ethanol, pH 7.0, buffer B: 10 mM Tris, 250 mM sodium perchlorate, and 20% ethanol, pH 7.0, gradient (B %): 20-70% (0-15 min), flow rate: 0.5 mL/min, temperature: 40° C., detection: 260 nm).
as §1, with “82-92%” for “87-92%”
The total amount of lipids was calculated from the amount of the phospholipid, the amount of cholesterol, and the amount of LP, and the compositional ratio of lipid components constituting the liposome, and the ratio of the mRNA to the lipid was calculated from the “amount of the mRNA in the presence of the detergent” of the preceding paragraph (2) according to the following expression: [mRNA concentration in the presence of the detergent]/[Total lipid concentration] (wt/wt)

[2] = Average particle size of nucleic acid lipid particle (NICOMP 380ZLS); assay type: physicochemical; conditions: ± deviation
Method: The particle size of the liposome was measured using Zeta Potential/Particle Sizer NICOMP™ 380ZLS (Particle Sizing Systems, LLC). In the tables, the average particle size is indicated by a volume-average particle size, and the numeric value following ±represents a deviation.

[3] = Rate of encapsulation of polynucleotide/mRNA (Quant-iT RiboGreen, with and without Triton X-100); assay type: physicochemical
Method: The rate of encapsulation of the double-stranded polynucleotide was measured using Quant-iT RiboGreen RNA Assay kit (Invitrogen Corp.) according to the attached document.
(§3) Specifically, the double-stranded polynucleotide in the nucleic acid lipid particle dispersion was quantified in the presence and absence of a 0.015% Triton X-100 detergent, and the rate of encapsulation was calculated according to the following expression: {[Amount of the double-stranded polynucleotide in the presence of the detergent]−[Amount of the double-stranded polynucleotide in the absence of the detergent]}/[Amount of the double-stranded polynucleotide in the presence of the detergent]}×100(%) (3) Ratio of Double-Stranded Polynucleotide to Lipid
The rate of encapsulation of the mRNA was measured using Quant-iT RiboGreen RNA Assay kit (Invitrogen Corp.) according to the attached document.
as §3, with “mRNA” for “double-stranded polynucleotide”, “mRNA” for “Double-Stranded Polynucleotide”

human PLK-1 gene = assay: Test Example 10: PLK-1 expression inhibition in Hep3B tumor of nude mice; assay type: in vivo; conditions: nude mice with subcutaneous Hep3B tumor, i.v. 1 mg/kg and 3 mg/kg, tumor collected the day after administration; particles of Example 57
Method: After acclimatization and raising of each nude mouse (CAnN.Cg-Foxn1[nu]/CrlCrlj[Foxn1nu/Foxn1nu]) for 8 days, cultured human Hep3B cells (1×10^7 cells/mouse) were subcutaneously transplanted to the right lateral region of the mouse. 19 days after the tumor transplantation, the mice were grouped with the tumor volume as an index, and, on the next day, the nucleic acid lipid particle-containing dispersion prepared in Example 57 was intravenously administered (administered at doses of 1 mg/kg and 3 mg/kg) to the tail of each mouse. PBS was administered to a control group. On the day after the administration of the nucleic acid lipid particle, a tumor mass was collected from the cancer-bearing mouse, and a nucleic acid was extracted using QIAzol Lysis Reagent (manufactured by Qiagen N.V.) and chloroform. Then, total RNA was purified using QIAGNE RNeasy Plus Mini kit (manufactured by Qiagen N.V.) according to the attached protocol.
16 μL of the purified RNA and 4 μL of SuperScript VILO Master mix (Life Technologies, Inc.) were mixed and used in RT reaction under conditions given below.
RT reaction: 25° C. for 10 min • 42° C. for 60 min • 85° C. for 5 min. […]
The quantitative analysis was conducted by the ΔΔCt method. A value (ΔΔCt) was determined by subtracting ΔCt of the PBS administration group from the difference in Ct value (ΔCt) between human PLK-1 and human GAPDH in the administration group of each nucleic acid lipid particle, and a relative value (RQ) to the PBS administration group, RQmax, and RQmin were calculated according to the following expressions: RQ=2^−ΔΔCt RQmax=2^−95% CI of ΔΔCt (95% CI of ΔΔCt: the maximum value of 95% confidence interval of ΔΔCt) RQmin=2^−95% CI of ΔΔCt (95% CI of ΔΔCt: the minimum value of 95% confidence interval of ΔΔCt)
In the diagram, error bars were calculated according to the following expression: +error bars:RQmax−RQ,−error bars:RQ−RQmin)

Factor VII protein = assay: Test Example 9: Factor VII (FVII) protein measurement in mouse plasma, 0.1 mg/kg i.v.; assay type: in vivo; conditions: mice, i.v. 0.1 mg/kg; for FVII inhibitory activity (in words): 1 day and 6 days after administration; for Relative amount of FVII, 1 day later: plasma 1 day after administration; for Relative amount of FVII, 1 day later / Relative amount of FVII, 6 days later: PBS = 100%; for Relative amount of FVII, 6 days later: plasma 6 days after administration
Method: The Factor VII protein was measured according to a method described in Nature Biotechnology (2010) 28, 172-176. C57BL6/J mice (male, 9 weeks old) were randomly grouped (n=4). The nucleic acid lipid particle dispersion prepared in Example 33 was intravenously injected at a dose of 0.3 mg/kg to the tail of each mouse. One day after the administration, approximately 50 μL of blood was collected from the tail vein, and plasma was obtained. The amount of the Factor VII protein in the obtained plasma was measured using Biophen FVII assay kit (manufactured by Aniara Corp.) according to the attached protocol.
When the amount of FVII of respective plasma samples collected in equal amounts from individuals in a PBS administration group was defined as 100%, the relative ratio (%) of the amount of FVII in a plasma sample of each individual was used as a measurement value (A). An average value (B) was determined from the respective measurement values of the individuals in the PBS administration group. The relative ratio of the measurement value (A) of each individual was determined from the expression: A/B×100(%).
By the same procedures as in Test Example 7, the strength of Factor VII protein expression inhibitory activity was compared among nucleic acid lipid particles each prepared using a novel lipid. The prepared nucleic acid lipid particle dispersion was intravenously injected at a dose of 0.1 mg/kg to the tail of each mouse. One day and 6 days after the administration, approximately 50 μL of blood was collected from the tail vein, and plasma was obtained.

[4] = Example 57: PLK1424-2/A siRNA, DPPC:Chol:LP:PEG-C-DSA=7:33.5:57:2.5, N/P 3
[5] = Example 56: siFVII, DSPC:Chol:LP:PEG-C-DMA=10:48:40:2, N/P 3

For `CCCCCCCCCCCCCCCCCC(CCCCCCCCCC)OC(=O)OCCCN(C)C` (stereo not drawn) [Example 19, 3-(Dimethylamino)propyloctacosan-11-yl Carbonate], the “Ratio of polynucleotide to lipid siRNA/lipid” value (shortened to “Ratio … to lipid siRNA/lipid”) [1, 4] was 0.095 wt/wt, the Average particle size [2, 4] was 103 ± 16 nm and the “Rate of polynucleotide encapsulation” value [3, 4] was 97%. The “PLK-1 expression inhibitory activity in tumor (in words, FIG. 5)” value (“PLK-1 expression inhibitory activity” below) (human PLK-1 gene) was “strong PLK-1 expression inhibitory activity”.
In the case of `CCCCCC[C@H](C/C=C\CCCCCCCC(CCCCCCC/C=C\C[C@@H](CCCCCC)OC(C)=O)OC(=O)OCCCN(C)C)OC(C)=O` [Example 23, (7R,9Z,26Z,29R)-18-({[3-(Dimethylamino)propoxy]carbonyl}oxy)pentatriaconta-9,26-diene-7,29-diyl Diacetate], the “Ratio … to lipid siRNA/lipid” value [1, 5] is reported as 0.076 wt/wt, the Average particle size [2, 5] is reported as 219 ± 49 nm and the “Rate of polynucleotide encapsulation” value [3, 5] is reported as 99%. The “FVII inhibitory activity (in words)” value (Factor VII protein) was “strong FVII inhibitory activity”, the “Relative amount of FVII, 1 day later” value (Factor VII protein) was 21% and the “Relative amount of FVII, 6 days later” value (Factor VII protein) was 32%.
For `CCCCCCCCCCC(CCCCCCC/C=C\C[C@@H](CCCCCC)OC(C)=O)OC(=O)OCCCN(C)C` (stereo partly drawn) [Example 28, (7R,9Z)-18-({[3-(Dimethylamino)propyloxy]carbonyl}oxy)octacos-9-en-7-yl Acetate], the “Ratio … to lipid siRNA/lipid” value [1, 5] was 0.083 wt/wt, the Average particle size [2, 5] was 177 ± 36 nm and the “Rate of polynucleotide encapsulation” value [3, 5] was 97%. For the same molecule, the “FVII inhibitory activity (in words)” value (Factor VII protein) was “strong FVII inhibitory activity”, the “Relative amount of FVII, 1 day later” value (Factor VII protein) was 45% and the “Relative amount of FVII, 6 days later” value (Factor VII protein) was 57%.
In the case of `CCCCCCCCCCCCCCCCCCCC(CCCCCCCCCC)OC(=O)OCCCN(C)C` (stereo not drawn) [Example 45, 3-(Dimethylamino)propyl triacontan-11-yl Carbonate], the “Ratio … to lipid siRNA/lipid” value [1, 4] is reported as 0.093 wt/wt, the Average particle size [2, 4] is reported as 100 ± 27 nm and the “Rate of polynucleotide encapsulation” value [3, 4] is reported as 96%. The “PLK-1 expression inhibitory activity” value (human PLK-1 gene) was “strong PLK-1 expression inhibitory activity”.
In the case of `CCCCC/C=C\C/C=C\CCCCCCCCC(COCCCCCCCC/C=C\C[C@@H](CCCCCC)OC(C)=O)OC(=O)OCCCN(C)C` (stereo partly drawn) [Example 54, (20,23R)-2-Methyl-9-[(9Z,12Z)-octadeca-9,12-dien-1-yl]-7-oxo-6,8,11-trioxa-2-azanonacos-20-en-23-yl Acetate], the “Ratio … to lipid siRNA/lipid” value [1, 4] is reported as 0.078 wt/wt, the Average particle size [2, 4] is reported as 127 ± 29 nm and the “Rate of polynucleotide encapsulation” value [3, 4] is reported as 98%. The “PLK-1 expression inhibitory activity” value (human PLK-1 gene) was “strong PLK-1 expression inhibitory activity”.
